The source of these data is US9801380B2, “Low VOC gibberellin formulations” (Valent BioSciences Corporation, priority 2013, dated 2017).

The data set can be described thus: Stability tests: observation for solubility after mixing. As to conditions: 5.95% GA3 TGAI.

Procedure: The stability tests were performed as follows. The solvent was charged in a 150 mL glass beaker containing a magnetic stir bar. The solvent was warmed on a hot plate while stirring. The polysorbate surfactant was charged when the solvent temperature reached 30 to 38 degrees Celsius. The formulations were mixed until they were solubilized (1 to 4 minutes). Then the GA3 TGAI was added under stirring and the temperature was raised to 38 to 41 degrees Celsius. The heat was discontinued and the formulations were mixed for 30 to 50 minutes. The formulations were then observed for solubility.

Take `C=C1C[C@]23C[C@@]1(O)CC[C@H]2[C@@]12C=C[C@H](O)[C@@](C)(C(=O)O1)[C@H]2[C@@H]3C(=O)O` [GA3, gibberellic acid]: the “Solubility of GA3 in the formulation” value is, setting by setting: (Formulation B (triethyl citrate)) “not soluble”; (Formulations A and D (PEG 300, PEG 400)) “soluble”.
